Results from patent US10376585B2, “Injectable antibiotic formulations and their methods of use” (BAYER NEW ZEALAND LTD, priority 2012, dated 2019).
Each block holds one molecule with its values, some of them ahead of it.

How the values were obtained:
[1] = at 20° C.; cited from earlier work
[2] = assay type: physicochemical
From the text: Thus the long term stability of PNT with triacetin (or other oily vehicles) is highly unexpected.
After one month in accelerated stability the components of the composition appeared to degrade rapidly with a resulting colour change from an off-white to a dark yellow with dark brown sludge forming. The degradation components appeared to include a gas, resulting in the container swelling from the resultant pressure. Accordingly, the formulations described in CN 1517090 are not known to be storage stable.

[3] = blood pH (7.2); cited from earlier work
[4] = intramuscular administration; Friton 2003; cited from earlier work

Compound: CC(=O)OCC(COC(C)=O)OC(C)=O [Triacetin]
viscosity [1]: approximately 23 mPas

chemical stability on storage [2]: chemically unstable on storage
Compound: CC1(C)S[C@@H]2[C@H](NC(=O)Cc3ccccc3)C(=O)N2[C@H]1C(=O)O [benzylpenicillin]

Compound: CCN(CC)CCOC(=O)[C@@H]1N2C(=O)[C@@H](NC(=O)Cc3ccccc3)[C@H]2SC1(C)C.I [penethamate hydroiodide]
active drug present in its hydrolysed form (benzylpenicillin) at equilibrium [3]: 91.8%
time to peak serum levels (measured as dissociated penicillin G) after injection [4]: 3.76 h

chemical stability of composition [2]: chemically unstable
chemical stability on storage [2]: chemically unstable on storage
Compound: CC1(C)S[C@@H]2[C@H](NC(=O)Cc3ccccc3)C(=O)N2[C@H]1C(=O)O.CCN(CC)CCOC(=O)c1ccc(N)cc1 [procaine penicillin]
